# Values joined by “and” are separate entries in the source; they are usually repeats but may differ in a detail not shown here. Identical values can stand only once.
# Legend:
# HaCat keratinocytes = experiment: Cell growth inhibition assay, HaCat; format: cell-based, human; settings: 24 h incubation, cell count
# Protocol: All synthesized compounds were tested in order to evaluate their in vitro antiproliferative activity. The human melanoma Colo-38 cell line was selected as a tumor skin model, while the immortalized human HaCaT keratinocytes were chosen as a control for the evaluation of the cytotoxicity towards non-cancerous cells and of the selectivity towards tumor cell lines. […] The selectivity index (SI) was also calculated and is the ratio between the IC50 of a given compound towards the non-cancerous cell line and the IC50 of the same compound towards the tumor cell line.
# Cell growth inhibition assays were carried out using human melanoma Colo-38 cells and skin HaCat keratinocytes cells. Human melanoma Colo-38 cells were kindly provided by Dr. Patrizio Giacomini (Laboratory of Immunology, Regina Elena Institute, Rome, Italy). HaCat cells were kindly provided by Istituto Zooprofilattico Sperimentale della Lombardia e dell’Emilia Romagna, Brescia, Italy. Cell lines were seeded using concentrations of 40,000 cells/mL and 25,000 cells/mL, respectively. Colo-38 cells were maintained in RPMI 1640, supplemented with 10% fetal bovine serum (FBS), penicillin (100 Units mL^−1), and streptomycin (100 µg mL^−1). HaCat cells were maintained in DMEM, supplemented with 10% fetal bovine serum (FBS), penicillin (100 Units mL^−1), streptomycin (100 µg mL^−1) and glutamine (2 mM); the incubation was performed at 37 °C in a 5% CO2 atmosphere. Tested compounds were dissolved in MeOH/DMSO (1:1) to obtain 50 mM stock solutions and diluted before cell treatment in MeOH 100%. The tested compounds were added at serial dilutions to the cell cultures (from 0.1 to 100 µM) and incubated for 24 h further. Cells were then harvested, suspended in physiological solution, and counted with a Z2 Coulter Counter (Coulter Electronics, Hialeah, FL, USA). The cell number/mL and the IC50 values were determined when untreated cells were in the log phase of cell growth. Cells treated with vehicles and untreated cells were placed in each plate.
# [1] = UV spectra in solution (MeOH-DMSO): λmax and molar extinction coefficient; format: physicochemical; settings: for ε (molar extinction coefficient): at λmax, Lambert-Beer equation, in M-1 cm-1 (unit assumed); for λmax: solution in MeOH-DMSO, 290–400 nm
# Protocol: We next investigated the protective potential against UV radiation of each compound. Specifically, in vitro tests were conducted to determine the parameters related to absorption in the UV spectrum and those fundamental to the relative evaluation of the filtering potential and thus candidature as possible UV sunscreen ingredients of the candidates under examination, including λ critical and SPF (sun protection factor). Since the SPF is correlated to the UV quantitative absorption of the substances, the wavelength of maximum absorption (λmax) and the molar extinction coefficient (ε) of the derivatives in solution (MeOH-DMSO) were evaluated (Figures S1 and S2, Supplementary Materials). The UV spectra of the compounds BZTidr1–6 and BZTcin1–5 were recorded in the UVA-UVB range (290–400 nm) to evaluate their profile and compare it to that of the PBSA, a commercial UVB filter that has a λmax of 302 nm. After this peak, the absorbance of PBSA drops, reaching almost zero in the 325 nm range, and thus not providing absorption in the UVA region.
# Once the λmax of each derivative was established, the molar extinction coefficient ε was calculated by applying the Lambert-Beer equation (Table S1, Supplementary Materials): the higher this value, the greater the ability of the compound under examination to absorb UV radiation. […] The excellent values of BZTidr1, BZTidr2 and BZTidr3 are ascribed to the aforementioned hyperchromic shift. In regard to the BZTcin1–5 series, the molar extinction coefficients calculated were very high, and the best values were those of BZTcin1, BZTcin2 and BZTcin3, also attributable to the hyperchromic shift of the absorption spectra. For both series, the excellent absorption capacity of ultraviolet radiation can be traced back to the high π-type conjugation that characterizes them.
# [2] = In vitro filtering parameters of O/W sunscreen formulation containing 3% compound (modified Diffey-Robson, PMMA plates); settings: 3% in formulation, before irradiation
# Excerpt: All synthesized compounds were formulated at 3% and their photoprotective efficacy, determined by spectrophotometric measurements using the modified Diffey-Robson method, was compared with that of the lead compound PBSA (used at 3% in the same formulation) and using the base without active as a control (Table 2).
# The synthesized compounds were incorporated at a concentration of 3% in a typical oil-in-water sunscreen formulation, to evaluate the filtering parameters, and have the following ingredient composition:
# INCI (International Nomenclature Cosmetic Ingredients): aqua, glycerin, Euxyl PE 9010, xanthan gum, Tribehenin PEG-20 Esters, cetearyl alcohol, dicaprylyl carbonate, PPG-26-Buteth-26 (and) PEG-40 Hydrogenated Castor Oil (and) water, C12-C15 Alkyl Benzoate, and Sodium hydroxide (sol. 10%).
# As previously reported the protocol indicates to spread 32.5 mg of each formulation on 25 cm^2 PMMA plates with the fingers. Each formulation was tested in triplicate, and five measurements were recorded for each dish, following a 15–30 min incubation in the dark at room temperature. UV transmittance data was recorded using a UV-VIS spectrophotometer in the range 290–400 nm. The blank plate, SPF, UVA-PF and critical wavelength were obtained by SPF Calculator software (version 2.1), Shimadzu, Milan, Italy).
# [3] = Photostability study of 3% formulation (post-irradiation filtering parameters); settings: 3% in formulation, post irradiation
# Excerpt: To outline the efficacy and safety profile of a sunscreen formulation, it is essential to provide data relating to photostability. It is possible to provide photodegradation data by recording, pre- and post-irradiation, the transmittance of PMMA plates with finger-coat formulations subjected to a dose of UVA capable of causing erythema, according to the criteria of Garoli et al.. By means of Equations (2) and (3) it was possible to evaluate the residual percentage of SPF in vitro and of UVA-PF for all the prepared formulations. Of greatest interest are the values obtained for the derivatives BZTcin2 and BZTcin4.
# To determine the photostability, the previously reported method was adopted, which consists in preparing each plate as mentioned above and subjecting it to solar irradiation quantified as the minimum dose of UVA equivalent to an effective radiant exposure of erythema. The protocol stipulates that, before and after exposure to sunlight, the transmission of the sun protection layer in the range of 290–400 nm is recorded.
# Using Equations (2) and (3) below, the residual percentage of SPF in vitro (% SPFeff.) and UVA-PF (% UVA-PFeff.) have been obtained, which, if greater than or equal to 80, can classify a filter as photostable. %SPFeff. = in vitro SPFafter/in vitro SPFbefore × 100(2) %UVA − PFeff. = UVA − PFafter/UVA − PFbefore × 100(3)
# [4] = FRAP (Ferric Reducing Antioxidant Power) assay; settings: Trolox standard, 37 °C 10 min, 593 nm; mean ± SEM
# Excerpt: The FRAP (Ferric Reducing Antioxidant Power) test allows the measurement of the ability of antioxidants to reduce ferric ion to ferrous. This method represents one of the simplest, quickest and least expensive methods for the determination of reducing properties on oxidized species in vitro.
# The FRAP test (Ferric Reducing Antioxidant Power) is based on a colorimetric reaction and evaluates the ability of a sample of reducing ferric ions to ferrous ion while complexed with TPTZ (2,4,6-trispyridil-s-triazine). The FRAP solution was prepared from 0.1 M acetate buffer (pH 3.6), 10 mmol/L of TPTZ in 40 mM HCl, and 20 mM solution of FeCl3, with a 10:1:1 ratio, as described. Then, 1.9 mL of this solution was incubated with 0.1 mL of the sample solution at 37 °C for 10 min. The absorbance was read with a UV-Vis spectrophotometer at a 593 nm wavelength, relative to the maximum peak of absorbance of Fe^2+-TPTZ complex. Trolox® was used as a standard and the results are expressed as µmolTE/g.
# [5] = DPPH radical scavenging test; settings: mean ± SEM; for DPPH (% Inhibition): compound at 1 mg/mL, 30 min, 517 nm
# Protocol: The DPPH assay is widely used, and the simplest and fastest in vitro method for evaluating the antioxidant power of extracts or isolated compounds; it is based on the depletion of the 2,2-diphenyl-1-picrylhydrazyl radical (DPPH˙) by an antioxidant molecule with scavenger activity. This is an extremely sensitive test that can detect the activity of active ingredients present in very low concentrations.
# The procedure used was adapted from Wang et al.. Briefly, 0.750 mL of a methanolic solution of each tested compound was treated with 1.5 mL of DPPH solution (0.004%) in MeOH. Samples were stored in the dark at room temperature for 30 min, and the absorbance value was read with a spectrophotometer at 517 nm, which is the maximum peak of absorbance relative to the DPPH radical absorption spectra. The values obtained were fitted into Equation (1) and converted to inhibition percentage (%) of the radical:DPPH inhibition percentage (%) = 100 × [1 − A1/A0](1) where A1 and A0 were, respectively, the absorbance recorded with and without the sample, which are directly proportional to DPPH residual concentration in the sample and DPPH concentration in the control (0.750 of MeOH and 1.5 mL of DPPH solution). […] A linear regression was performed to calculate the sample concentration able to eliminate 50% of DPPH free radicals.
ε (molar extinction coefficient) [1],λmax [1],DPPH IC50 [5],melting point,Compound,IC50 (HaCat keratinocytes),SPF [2],UVA/UVB [2],UVAPF0 [2],λc [2],SPF [3],UVA/UVB [3],UVAPF [3],λc [3],FRAP [4],DPPH (% Inhibition) [5]
–,–,–,–,"N.N.[Cl][Pt][Cl] [Cisplatin, reference compound]",2000 ± 400 nM,–,–,–,–,–,–,–,–,–,–
23462.08,342.4 nm,–,–,"COc1ccc(/C=N/NC(=O)c2nc3ccccc3s2)cc1O [BZTidr5, (E)-N′-(3-hydroxy-4-methoxybenzylidene)benzo[d]thiazole-2-carbohydrazide]",–,1.60,1.06,1.58,387 nm,1.60,1.06,1.56,387 nm,1758.16 ± 60.41 µmolTE/g,44.00 ± 3.56%
22071.63,344.8 nm,26.22 ± 1.81 µg/mL,–,"COc1cc(/C=N/NC(=O)c2nc3ccccc3s2)ccc1O [BZTidr6, (E)-N′-(3-methoxy-4-hydroxybenzylidene)benzo[d]thiazole-2-carbohydrazide]",–,1.24,1.06,1.36,389 nm,1.24,1.06,1.36,389 nm,3826.51 ± 90.60 µmolTE/g,>90.00%
33223.32,319.4 nm,–,227 to 230 °C,"O=C(N/N=C/c1ccccc1)c1nc2ccccc2s1 [BZTidr1, (E)-N′-benzylidenebenzo[d]thiazole-2-carbohydrazide]",–,1.48,1.00,1.37,374 nm,1.42,1.00,1.42,372 nm,282.16 ± 15.03 µmolTE/g,10.95 ± 0.12%
–,–,5.26 ± 0.41 µg/mL,–,"O=C(O)/C=C/c1ccc(O)c(O)c1 [Caffeic acid, reference compound]",–,–,–,–,–,–,–,–,–,"10,160.24 ± 21.48 µmolTE/g",79.95 ± 0.88%
36271.07,334.5 nm,–,260 to 262 °C,"COc1ccc(/C=C/C(=O)Nc2nc3ccccc3s2)cc1 [BZTcin3, (E)-N-(benzo[d]thiazol-2-yl)-3-(4-methoxyphenyl)acrylamide]",–,1.32,1.07,1.38,384 nm,1.32,1.07,1.36,384 nm,42.12 ± 1.35 µmolTE/g,5.77 ± 0.00%
33033.71,317.0 nm,–,–,"O=C(C=Cc1ccccc1)Nc1nc2ccccc2s1 [BZTcin1, N-(benzo[d]thiazol-2-yl)cinnamamide]",–,1.74,0.93,1.38,370 nm,2.33,0.93,1.48,364 nm,98.69 ± 2.06 µmolTE/g,0.51 ± 0.27%

Compound,ε (molar extinction coefficient) [1],λmax [1],DPPH IC50 [5],melting point,IC50 (HaCat keratinocytes),SPF [2],UVA/UVB [2],UVAPF0 [2],λc [2],SPF [3],UVA/UVB [3],UVAPF [3],λc [3],FRAP [4],DPPH (% Inhibition) [5]
"O=S(=O)(O)c1ccc2nc(-c3ccccc3)[nH]c2c1 [PBSA, 2-phenyl-1-H-benzimidazole-5-sulfonic acid, reference compound]",23881.86,302.0 nm and 302 nm,–,–,–,1.91,0.67,1.13,357 nm,1.98,0.67,1.13,355 nm,<LOQ *,<LOQ *
